Values of other authors as cited in publication PMC2119397 (The Journal of Experimental Medicine, 1992).
Read-outs that look alike come from different tables or passages of the source.

System: DR1

| Sequence | DR1 binding (in words) (ref Sinigaglia, F., unpublished observation) | DR1 binding (in words) |
| --- | --- | --- |
| NALYKMNAVAKAA [NNX 83-91] | DR1 binding |  |
| PKYVKQNTLKLAT [HA 307-319] |  | DR1 binding |
| TT 830-843: DR1-binding synthetic peptide of tetanus toxoid (QYIKANSKFIGITE; UniProt P04958 830-843, looked up, fragment) |  | DRl-binding |
